{"source": "PubChem BioAssay (NCI)", "test_in_all_cases": "NCI tumour cell line growth inhibition, 48 h", "key": {"786-0 renal": {"system": "786-0 renal"}, "A498 renal": {"system": "A498 renal"}, "A549 NSCLC": {"system": "A549 NSCLC"}, "ACHN renal": {"system": "ACHN renal"}, "CAKI-1 renal": {"system": "CAKI-1 renal"}, "CCRF-CEM leukemia": {"system": "CCRF-CEM leukemia"}, "COLO 205 colon": {"system": "COLO 205 colon"}, "DLD-1 colon": {"system": "DLD-1 colon"}, "DMS 114 small cell lung": {"system": "DMS 114 small cell lung"}, "DMS 273 small cell lung": {"system": "DMS 273 small cell lung"}, "EKVX NSCLC": {"system": "EKVX NSCLC"}, "HCC-2998 colon": {"system": "HCC-2998 colon"}, "HCT-116 colon": {"system": "HCT-116 colon"}, "HCT-15 colon": {"system": "HCT-15 colon"}, "HL-60(TB) leukemia": {"system": "HL-60(TB) leukemia"}, "HOP-18 NSCLC": {"system": "HOP-18 NSCLC"}, "HOP-62 NSCLC": {"system": "HOP-62 NSCLC"}, "HOP-92 NSCLC": {"system": "HOP-92 NSCLC"}, "HT29 colon": {"system": "HT29 colon"}, "IGROV1 ovarian": {"system": "IGROV1 ovarian"}, "K-562 leukemia": {"system": "K-562 leukemia"}, "KM12 colon": {"system": "KM12 colon"}, "KM20L2 colon": {"system": "KM20L2 colon"}, "LOX IMVI melanoma": {"system": "LOX IMVI melanoma"}, "LXFL 529 NSCLC": {"system": "LXFL 529 NSCLC"}, "M14 melanoma": {"system": "M14 melanoma"}, "M19-MEL melanoma": {"system": "M19-MEL melanoma"}, "MALME-3M melanoma": {"system": "MALME-3M melanoma"}, "MOLT-4 leukemia": {"system": "MOLT-4 leukemia"}, "NCI-H226 lung": {"system": "NCI-H226 lung"}, "NCI-H23 lung": {"system": "NCI-H23 lung"}, "NCI-H460 lung": {"system": "NCI-H460 lung"}, "NCI-H522 lung": {"system": "NCI-H522 lung"}, "OVCAR-3 ovarian": {"system": "OVCAR-3 ovarian"}, "OVCAR-4 ovarian": {"system": "OVCAR-4 ovarian"}, "OVCAR-5 ovarian": {"system": "OVCAR-5 ovarian"}, "OVCAR-8 ovarian": {"system": "OVCAR-8 ovarian"}, "RPMI-8226 leukemia": {"system": "RPMI-8226 leukemia"}, "RXF 393 renal": {"system": "RXF 393 renal"}, "RXF-631 renal": {"system": "RXF-631 renal"}, "SF-268 CNS": {"system": "SF-268 CNS"}, "SF-295 CNS": {"system": "SF-295 CNS"}, "SF-539 CNS": {"system": "SF-539 CNS"}, "SK-MEL-2 melanoma": {"system": "SK-MEL-2 melanoma"}, "SK-MEL-28 melanoma": {"system": "SK-MEL-28 melanoma"}, "SK-MEL-5 melanoma": {"system": "SK-MEL-5 melanoma"}, "SK-OV-3 ovarian": {"system": "SK-OV-3 ovarian"}, "SN12C renal": {"system": "SN12C renal"}, "SNB-19 CNS": {"system": "SNB-19 CNS"}, "SNB-75 CNS": {"system": "SNB-75 CNS"}, "SNB-78 CNS": {"system": "SNB-78 CNS"}, "SR leukemia": {"system": "SR leukemia"}, "SW-620 colon": {"system": "SW-620 colon"}, "TK-10 renal": {"system": "TK-10 renal"}, "U251 CNS": {"system": "U251 CNS"}, "UACC-257 melanoma": {"system": "UACC-257 melanoma"}, "UACC-62 melanoma": {"system": "UACC-62 melanoma"}, "UO-31 renal": {"system": "UO-31 renal"}, "XF 498 CNS": {"system": "XF 498 CNS"}, "P388 leukemia": {"system": "P388 leukemia"}, "P388/ADR leukemia": {"system": "P388/ADR leukemia"}}, "note": "Values joined by “and” are separate entries in the source; they are usually repeats but may differ in a detail not shown here. Equal entries are not always repeated.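 Protocol summary: plate cells (96-well), add compound at 5 concentrations, incubate 48 h, interpolate endpoints linearly. The concentration for 50% growth inhibition is given as GI50. Definition used: TGI = concentration required for complete inhibition of growth.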", "data": [{"smiles": "N#CC(N)(C(=O)C(=O)NCCCNC(=O)C(=O)C(N)(C#N)c1ccc(Cl)cc1)c1ccc(Cl)cc1", "note": "(stereo not drawn)", "values": [{"measurement": "TGI", "setting": "786-0 renal", "result": "> 100", "unit": "µM"}, {"measurement": "TGI", "setting": "A498 renal", "result": "> 100", "unit": "µM"}, {"measurement": "TGI", "setting": "A549 NSCLC", "result": "> 100", "unit": "µM"}, {"measurement": "TGI", "setting": "ACHN renal", "result": "> 100", "unit": "µM"}, {"measurement": "TGI", "setting": "CAKI-1 renal", "result": "> 100", "unit": "µM"}, {"measurement": "TGI", "setting": "CCRF-CEM leukemia", "result": "> 100", "unit": "µM"}, {"measurement": "TGI", "setting": "COLO 205 colon", "result": "> 100", "unit": "µM"}, {"measurement": "TGI", "setting": "DLD-1 colon", "result": "> 100", "unit": "µM"}, {"measurement": "TGI", "setting": "DMS 114 small cell lung", "result": "> 100", "unit": "µM"}, {"measurement": "TGI", "setting": "DMS 273 small cell lung", "result": "> 100", "unit": "µM"}, {"measurement": "TGI", "setting": "EKVX NSCLC", "result": "> 100", "unit": "µM"}, {"measurement": "TGI", "setting": "HCC-2998 colon", "result": "> 100", "unit": "µM"}, {"measurement": "TGI", "setting": "HCT-116 colon", "result": "> 100", "unit": "µM"}, {"measurement": "TGI", "setting": "HCT-15 colon", "result": "> 100", "unit": "µM"}, {"measurement": "TGI", "setting": "HL-60(TB) leukemia", "result": "> 100", "unit": "µM"}, {"measurement": "TGI", "setting": "HOP-18 NSCLC", "result": "> 100", "unit": "µM"}, {"measurement": "TGI", "setting": "HOP-62 NSCLC", "result": "> 100", "unit": "µM"}, {"measurement": "TGI", "setting": "HOP-92 NSCLC", "result": "> 100", "unit": "µM"}, {"measurement": "TGI", "setting": "HT29 colon", "result": "> 100", "unit": "µM"}, {"measurement": "TGI", "setting": "IGROV1 ovarian", "result": "> 100", "unit": "µM"}, {"measurement": "TGI", "setting": "K-562 leukemia", "result": "> 100", "unit": "µM"}, {"measurement": "TGI", "setting": "KM12 colon", "result": "> 100", "unit": "µM"}, {"measurement": "TGI", "setting": "KM20L2 colon", "result": "> 100", "unit": "µM"}, {"measurement": "TGI", "setting": "LOX IMVI melanoma", "result": "> 100", "unit": "µM"}, {"measurement": "TGI", "setting": "LXFL 529 NSCLC", "result": "> 100", "unit": "µM"}, {"measurement": "TGI", "setting": "M14 melanoma", "result": "> 100", "unit": "µM"}, {"measurement": "TGI", "setting": "M19-MEL melanoma", "result": "> 100", "unit": "µM"}, {"measurement": "TGI", "setting": "MALME-3M melanoma", "result": "> 100", "unit": "µM"}, {"measurement": "TGI", "setting": "MOLT-4 leukemia", "result": "> 100", "unit": "µM"}, {"measurement": "TGI", "setting": "NCI-H226 lung", "result": "> 100", "unit": "µM"}, {"measurement": "TGI", "setting": "NCI-H23 lung", "result": "> 100", "unit": "µM"}, {"measurement": "TGI", "setting": "NCI-H460 lung", "result": "> 100", "unit": "µM"}, {"measurement": "TGI", "setting": "NCI-H522 lung", "result": "> 100", "unit": "µM"}, {"measurement": "TGI", "setting": "OVCAR-3 ovarian", "result": "> 100", "unit": "µM"}, {"measurement": "TGI", "setting": "OVCAR-4 ovarian", "result": "> 100", "unit": "µM"}, {"measurement": "TGI", "setting": "OVCAR-5 ovarian", "result": "> 100", "unit": "µM"}, {"measurement": "TGI", "setting": "OVCAR-8 ovarian", "result": "> 100", "unit": "µM"}, {"measurement": "TGI", "setting": "RPMI-8226 leukemia", "result": "> 100", "unit": "µM"}, {"measurement": "TGI", "setting": "RXF 393 renal", "result": "> 100", "unit": "µM"}, {"measurement": "TGI", "setting": "RXF-631 renal", "result": "> 100", "unit": "µM"}, {"measurement": "TGI", "setting": "SF-268 CNS", "result": "> 100", "unit": "µM"}, {"measurement": "TGI", "setting": "SF-295 CNS", "result": "> 100", "unit": "µM"}, {"measurement": "TGI", "setting": "SF-539 CNS", "result": "> 100", "unit": "µM"}, {"measurement": "TGI", "setting": "SK-MEL-2 melanoma", "result": "> 100", "unit": "µM"}, {"measurement": "TGI", "setting": "SK-MEL-28 melanoma", "result": "> 100", "unit": "µM"}, {"measurement": "TGI", "setting": "SK-MEL-5 melanoma", "result": "> 100", "unit": "µM"}, {"measurement": "TGI", "setting": "SK-OV-3 ovarian", "result": "> 100", "unit": "µM"}, {"measurement": "TGI", "setting": "SN12C renal", "result": "> 100", "unit": "µM"}, {"measurement": "TGI", "setting": "SNB-19 CNS", "result": "> 100", "unit": "µM"}, {"measurement": "TGI", "setting": "SNB-75 CNS", "result": "> 100", "unit": "µM"}, {"measurement": "TGI", "setting": "SNB-78 CNS", "result": "> 100", "unit": "µM"}, {"measurement": "TGI", "setting": "SR leukemia", "result": "> 100", "unit": "µM"}, {"measurement": "TGI", "setting": "SW-620 colon", "result": "> 100", "unit": "µM"}, {"measurement": "TGI", "setting": "TK-10 renal", "result": "> 100", "unit": "µM"}, {"measurement": "TGI", "setting": "U251 CNS", "result": "> 100", "unit": "µM"}, {"measurement": "TGI", "setting": "UACC-257 melanoma", "result": "> 100", "unit": "µM"}, {"measurement": "TGI", "setting": "UACC-62 melanoma", "result": "> 100", "unit": "µM"}, {"measurement": "TGI", "setting": "UO-31 renal", "result": "> 100", "unit": "µM"}, {"measurement": "TGI", "setting": "XF 498 CNS", "result": "> 100", "unit": "µM"}]}, {"smiles": "Nc1ncn(C2OC(CO)C(O)C2O)c(=O)n1", "note": "(stereo not drawn)", "values": [{"measurement": "GI50", "setting": "DMS 114 small cell lung", "result": "9.47 µM and 1.17 µM"}, {"measurement": "TGI", "setting": "EKVX NSCLC", "result": "215 µM and > 72.8 µM and 26.5 µM"}, {"measurement": "TGI", "setting": "HOP-18 NSCLC", "result": "250 µM and 125 µM"}, {"measurement": "TGI", "setting": "M19-MEL melanoma", "result": "> 250 µM and 28.4 µM"}, {"measurement": "GI50", "setting": "P388 leukemia", "result": 0.55, "unit": "µM"}, {"measurement": "TGI", "setting": "P388 leukemia", "result": "36.7 µM and 7.61 µM"}, {"measurement": "GI50", "setting": "P388/ADR leukemia", "result": 0.611, "unit": "µM"}, {"measurement": "TGI", "setting": "P388/ADR leukemia", "result": "41.1 µM and 11.6 µM"}, {"measurement": "TGI", "setting": "XF 498 CNS", "result": "61.2 µM and 11.4 µM"}]}]}
